Tests used:
[1] = system: SW480 human primary colon cancer cells; assay: MTT assay, SW480 cells; assay type: cell-based; conditions: SW480, 72 h, read-out: IC50 SW480
[2] = system: SW620 human metastatic colon cancer cells; assay: MTT assay, SW620 cells; assay type: cell-based; conditions: SW-620, 72 h, read-out: IC50 SW620
[3] = system: PC3 human metastatic prostate cancer cells; assay: MTT assay, PC3 cells; assay type: cell-based; conditions: PC-3, 72 h, read-out: IC50 PC3
[4] = system: A549 human lung cancer cells; assay: MTT assay, A549 cells; assay type: cell-based; conditions: A549, 72 h, read-out: IC50 A549
[5] = Black lipid membrane (BLM) ionic current; conditions: at −60 mV, 50/150 mM KCl (cis/trans) gradient
A549 cells [6] = assay: MitoTracker Green FM flow cytometry (mitochondrial mass), A549; conditions: A549, 48 h at IC50 concentration
A549 cells [7] = assay: MitoTracker Red CMXRos flow cytometry (mitochondrial membrane potential), A549; conditions: A549, 48 h at IC50 concentration
prostate cancer cells = system: prostate cancer cells; parameters: method as in PMID 21159605; conditions: no significant effects on normal prostate epithelial cells; cited from earlier work

Structure (SMILES)	IC50 [1] [µM]	IC50 [2] [µM]	IC50 [3] [µM]	IC50 [4] [µM]	ionic current through artificial membrane [5] [pA]	cells positive for MTGreen fluorescence (A549 cells [6]) [%]	MTRed CMXRos positive stained cells (A549 cells [7]) [%]	growth inhibition of prostate cancer cells (prostate cancer cells)
CC[C@@H](C(=O)[C@@H](C)[C@@H](O)[C@H](C)[C@@H]1O[C@@H]([C@@H](CC)C(=O)O)CC[C@@H]1C)[C@H]1O[C@]2(C=C[C@H](n3cc(C[P+](c4ccccc4)(c4ccccc4)c4ccccc4)nn3)[C@]3(CC[C@@](C)([C@H]4CC[C@](O)(CC)[C@H](C)O4)O3)O2)[C@H](C)C[C@@H]1C [1a]	9 ± 3.6	16.4 ± 2.4	1.2 ± 0.2	2.9 ± 0.5	–	–	–	–
CC[C@@H](C(=O)[C@@H](C)[C@@H](O)[C@H](C)[C@@H]1O[C@@H]([C@@H](CC)C(=O)O)CC[C@@H]1C)[C@H]1O[C@]2(C=C[C@H](n3cc(COC(=O)CCC[P+](c4ccccc4)(c4ccccc4)c4ccccc4)nn3)[C@]3(CC[C@@](C)([C@H]4CC[C@](O)(CC)[C@H](C)O4)O3)O2)[C@H](C)C[C@@H]1C [1b]	8.8 ± 2.4	16.8 ± 4.4	5.5 ± 1.4	3.9 ± 0.8	–	–	–	–
CC[C@@H](C(=O)[C@@H](C)[C@@H](O)[C@H](C)[C@@H]1O[C@@H]([C@@H](CC)C(=O)O)CC[C@@H]1C)[C@H]1O[C@]2(C=C[C@H](n3cc(CNC(=O)CCC[P+](c4ccccc4)(c4ccccc4)c4ccccc4)nn3)[C@]3(CC[C@@](C)([C@H]4CC[C@](O)(CC)[C@H](C)O4)O3)O2)[C@H](C)C[C@@H]1C [1c]	9.8 ± 2	14 ± 4.1	12.9 ± 1.3	15.6 ± 9.1	–	–	–	–
CCCC[P+](CCCC)(CCCC)Cc1cn([C@H]2C=C[C@]3(O[C@H]([C@@H](CC)C(=O)[C@@H](C)[C@@H](O)[C@H](C)[C@@H]4O[C@@H]([C@@H](CC)C(=O)O)CC[C@@H]4C)[C@@H](C)C[C@H]3C)O[C@@]23CC[C@@](C)([C@H]2CC[C@](O)(CC)[C@H](C)O2)O3)nn1 [1d]	2.5 ± 0.6	1.8 ± 0.2	3.6 ± 1.6	3.6 ± 0.5	−10	–	–	–
CC[C@@H](C(=O)[C@@H](C)[C@@H](O)[C@H](C)[C@@H]1O[C@@H]([C@@H](CC)C(=O)O)CC[C@@H]1C)[C@H]1O[C@]2(C=C[C@H](NC(=O)CCC[P+](c3ccccc3)(c3ccccc3)c3ccccc3)[C@]3(CC[C@@](C)([C@H]4CC[C@](O)(CC)[C@H](C)O4)O3)O2)[C@H](C)C[C@@H]1C [1e]	10.4 ± 2.3	10.9 ± 2.6	4 ± 0.7	5.1 ± 0.8	–	–	–	–
CC[C@@H](C(=O)[C@@H](C)[C@@H](O)[C@H](C)[C@@H]1O[C@@H]([C@@H](CC)C(=O)OCCCCCC[P+](c2ccccc2)(c2ccccc2)c2ccccc2)CC[C@@H]1C)[C@H]1O[C@]2(C=C[C@@H](OC(=O)CCC(=O)OCCCCCC[P+](c3ccccc3)(c3ccccc3)c3ccccc3)[C@]3(CC[C@@](C)([C@H]4CC[C@](O)(CC)[C@H](C)O4)O3)O2)[C@H](C)C[C@@H]1C [1f]	–	–	–	–	−10	61.6	–	–
CCC1(C2OC(C3OC(O)(Cn4cc(C[P+](c5ccccc5)(c5ccccc5)c5ccccc5)nn4)C(C)CC3C)CC2C)CCC(C2(C)CCC3(CC(O)C(C)C(C(C)C(OC)C(C)C(=O)O)O3)O2)O1 (centres unmarked) [2a]	0.5 ± 0.1	0.7 ± 0.2	0.4 ± 0.1	0.3 ± 0.02	–	–	–	–
CCC1(C2OC(C3OC(O)(Cn4cc(COC(=O)CCC[P+](c5ccccc5)(c5ccccc5)c5ccccc5)nn4)C(C)CC3C)CC2C)CCC(C2(C)CCC3(CC(O)C(C)C(C(C)C(OC)C(C)C(=O)O)O3)O2)O1 (centres unmarked) [2b]	0.8 ± 0.04	1.5 ± 0.2	0.7 ± 0.3	3.4 ± 1.1	–	–	–	–
CCC1(C2OC(C3OC(O)(Cn4cc(CNC(=O)CCC[P+](c5ccccc5)(c5ccccc5)c5ccccc5)nn4)C(C)CC3C)CC2C)CCC(C2(C)CCC3(CC(O)C(C)C(C(C)C(OC)C(C)C(=O)O)O3)O2)O1 (centres unmarked) [2c]	18.3 ± 0.4	10.6 ± 0.4	14.5 ± 2.1	14.9 ± 3.4	–	–	–	–
CCCC[P+](CCCC)(CCCC)Cc1cn(CC2(O)OC(C3CC(C)C(C4(CC)CCC(C5(C)CCC6(CC(O)C(C)C(C(C)C(OC)C(C)C(=O)O)O6)O5)O4)O3)C(C)CC2C)nn1 (centres unmarked) [2d]	3.5 ± 0.1	4.3 ± 0.01	3.1 ± 0.6	1.4 ± 0.4	–	–	–	–
CCC1(C2OC(C3OC(O)(CNC(=O)CCC[P+](c4ccccc4)(c4ccccc4)c4ccccc4)C(C)CC3C)CC2C)CCC(C2(C)CCC3(CC(O)C(C)C(C(C)C(OC)C(C)C(=O)O)O3)O2)O1 (centres unmarked) [2e]	46.7 ± 3.1	28.1 ± 2.1	> 100	> 100	–	–	–	–
CCC1(C2OC(C3OC(O)(COC(=O)CCC(=O)OCCC[P+](c4ccccc4)(c4ccccc4)c4ccccc4)C(C)CC3C)CC2C)CCC(C2(C)CCC3(CC(O)C(C)C(C(C)C(OC)C(C)C(=O)OCCC[P+](c4ccccc4)(c4ccccc4)c4ccccc4)O3)O2)O1 (centres unmarked) [2f]	1.7 ± 0.3	2.3 ± 0.4	1.4 ± 0.1	1.3 ± 0.2	–	–	22.5	–
CC[C@@]1([C@@H]2O[C@@H]([C@H]3O[C@@](O)(CO)[C@H](C)C[C@@H]3C)C[C@@H]2C)CC[C@H]([C@]2(C)CC[C@]3(C[C@H](O)[C@@H](C)[C@@H]([C@@H](C)[C@@H](OC)[C@H](C)C(=O)O)O3)O2)O1 [MON, Monensin A]	–	–	–	–	–	–	–	selectively inhibited the growth of prostate cancer cells at nanomolar concentrations
CC[C@@H](C(=O)[C@@H](C)[C@@H](O)[C@H](C)[C@@H]1O[C@@H]([C@@H](CC)C(=O)O)CC[C@@H]1C)[C@H]1O[C@]2(C=C[C@@H](O)[C@]3(CC[C@@](C)([C@H]4CC[C@](O)(CC)[C@H](C)O4)O3)O2)[C@H](C)C[C@@H]1C [SAL, Salinomycin, reference compound]	1.1 ± 0.04	1.5 ± 0.06	2.7 ± 0.1	1.6 ± 0.1	–	–	–	–

— publication PMC12655037, “Mitochondrial-Targeted Triphenylphosphonium-Conjugated Ionophores with Enhanced Cytotoxicity in Cancer Cells” (Molecules, 2025)
